Source: the NIST ThermoML archive (doi:10.1016/j.tca.2011.12.010)
Where “and” joins values, the source holds several entries; their conditions need not be identical. Equal values may be shown once. Numbers after ± are expanded uncertainties.

Assay: molar heat capacity at constant pressure
Conditions: 101.33 kPa, Small sample (50 mg) DSC

O=[N+]([O-])[O-].O=[N+]([O-])[O-].O=[N+]([O-])[O-].O=[N+]([O-])[O-].[K+].[K+].[Mg+2] [bis-potassium magnesium nitrate]
Conditions	molar heat capacity at constant pressure
461 K, Crystal 1	606.9 ± 12 J/K/mol
462 K, Crystal 1	680.8 ± 14 J/K/mol
463 K, Crystal 1	806.8 ± 16 J/K/mol
464 K, Crystal 1	1030.1 ± 22 J/K/mol
465 K, Crystal 1	1503.6 ± 34 J/K/mol
466 K, Crystal 1	2552.2 ± 57 J/K/mol
467 K, Crystal 1	4003 ± 80 J/K/mol
469 K, Liquid	2955.4 ± 60 J/K/mol
470 K, Liquid	2419.9 ± 50 J/K/mol
471 K, Liquid	1683.9 ± 36 J/K/mol
472 K, Liquid	1106.4 ± 24 J/K/mol
473 K, Liquid	770 ± 16 J/K/mol
474 K, Liquid	542.5 ± 11 J/K/mol
475 K, Liquid	510 ± 10 J/K/mol
476 K, Liquid	480.6 ± 9.6 J/K/mol
477 K, Liquid	469 ± 9.4 J/K/mol
478 K, Liquid	455.6 ± 9.1 J/K/mol
478.15 K, Liquid	463.8 ± 9.3 J/K/mol
479 K, Liquid	462.4 ± 9.2 J/K/mol
480 K, Liquid	462.4 ± 9.2 J/K/mol
481 K, Liquid	462.4 ± 9.2 J/K/mol
482 K, Liquid	462.6 ± 9.3 J/K/mol
483 K, Liquid	462.8 ± 9.3 J/K/mol
484 K, Liquid	463 ± 9.3 J/K/mol
485 K, Liquid	459.2 ± 9.2 J/K/mol and 463.2 ± 9.3 J/K/mol
486 K, Liquid	463.3 ± 9.3 J/K/mol
487 K, Liquid	463.4 ± 9.3 J/K/mol
488 K, Liquid	463.6 ± 9.3 J/K/mol
489 K, Liquid	463.8 ± 9.3 J/K/mol
490 K, Liquid	463.9 ± 9.3 J/K/mol
491 K, Liquid	464.1 ± 9.3 J/K/mol
492 K, Liquid	464.6 ± 9.3 J/K/mol
493 K, Liquid	464.6 ± 9.3 J/K/mol
494 K, Liquid	464.9 ± 9.3 J/K/mol
495 K, Liquid	465.2 ± 9.3 J/K/mol
496 K, Liquid	465.5 ± 9.3 J/K/mol
497 K, Liquid	465.6 ± 9.3 J/K/mol
498 K, Liquid	465.8 ± 9.3 J/K/mol
499 K, Liquid	466 ± 9.3 J/K/mol
500 K, Liquid	466.2 ± 9.3 J/K/mol
501 K, Liquid	466.4 ± 9.3 J/K/mol
502 K, Liquid	466.6 ± 9.3 J/K/mol
503 K, Liquid	466.1 ± 9.3 J/K/mol
504 K, Liquid	467 ± 9.3 J/K/mol
505 K, Liquid	467.2 ± 9.3 J/K/mol
506 K, Liquid	467.4 ± 9.3 J/K/mol
507 K, Liquid	467 ± 9.3 J/K/mol
508 K, Liquid	467.8 ± 9.4 J/K/mol
509 K, Liquid	466.6 ± 9.3 J/K/mol
510 K, Liquid	469 ± 9.4 J/K/mol and 466.2 ± 9.3 J/K/mol
511 K, Liquid	466.2 ± 9.3 J/K/mol
512 K, Liquid	464.1 ± 9.3 J/K/mol
513 K, Liquid	465.5 ± 9.3 J/K/mol
514 K, Liquid	464.5 ± 9.3 J/K/mol
515 K, Liquid	471.8 ± 9.4 J/K/mol
516 K, Liquid	470.4 ± 9.4 J/K/mol
517 K, Liquid	466.9 ± 9.3 J/K/mol
518 K, Liquid	471.1 ± 9.4 J/K/mol
519 K, Liquid	476.4 ± 9.5 J/K/mol
520 K, Liquid	475.7 ± 9.5 J/K/mol and 471.8 ± 9.4 J/K/mol
521 K, Liquid	475.7 ± 9.5 J/K/mol
522 K, Liquid	480.9 ± 9.6 J/K/mol
523 K, Liquid	478.1 ± 9.6 J/K/mol
524 K, Liquid	478.6 ± 9.6 J/K/mol
525 K, Liquid	479.1 ± 9.6 J/K/mol
526 K, Liquid	478.1 ± 9.6 J/K/mol
527 K, Liquid	478.7 ± 9.6 J/K/mol
528 K, Liquid	478.8 ± 9.6 J/K/mol
529 K, Liquid	485.8 ± 9.7 J/K/mol
530 K, Liquid	480.6 ± 9.6 J/K/mol
531 K, Liquid	474.6 ± 9.5 J/K/mol
532 K, Liquid	475.7 ± 9.5 J/K/mol
533 K, Liquid	476 ± 9.5 J/K/mol
534 K, Liquid	477.4 ± 9.5 J/K/mol
535 K, Liquid	483.4 ± 9.7 J/K/mol and 478.8 ± 9.6 J/K/mol
536 K, Liquid	480.6 ± 9.6 J/K/mol
537 K, Liquid	481.3 ± 9.6 J/K/mol
538 K, Liquid	483.4 ± 9.7 J/K/mol
539 K, Liquid	484.4 ± 9.7 J/K/mol
540 K, Liquid	486.5 ± 9.7 J/K/mol
541 K, Liquid	486.9 ± 9.7 J/K/mol
542 K, Liquid	487.6 ± 9.8 J/K/mol
543 K, Liquid	489 ± 9.8 J/K/mol
544 K, Liquid	490.7 ± 9.8 J/K/mol
545 K, Liquid	491.8 ± 9.8 J/K/mol
546 K, Liquid	493.5 ± 9.9 J/K/mol
547 K, Liquid	494.9 ± 9.9 J/K/mol
548 K, Liquid	495.6 ± 9.9 J/K/mol
549 K, Liquid	496.7 ± 9.9 J/K/mol
550 K, Liquid	498.4 ± 10 J/K/mol
551 K, Liquid	499.5 ± 10 J/K/mol
552 K, Liquid	500.9 ± 10 J/K/mol
553 K, Liquid	502.3 ± 10 J/K/mol
554 K, Liquid	503 ± 10 J/K/mol
555 K, Liquid	504.4 ± 10 J/K/mol
556 K, Liquid	505.8 ± 10 J/K/mol
557 K, Liquid	506.5 ± 10 J/K/mol
558 K, Liquid	508.2 ± 10 J/K/mol
559 K, Liquid	508.9 ± 10 J/K/mol
560 K, Liquid	510.3 ± 10 J/K/mol
561 K, Liquid	511.4 ± 10 J/K/mol
562 K, Liquid	512.4 ± 10 J/K/mol
563 K, Liquid	513.1 ± 10 J/K/mol
564 K, Liquid	514.2 ± 10 J/K/mol
565 K, Liquid	515.2 ± 10 J/K/mol
566 K, Liquid	517 ± 10 J/K/mol
567 K, Liquid	518 ± 10 J/K/mol
568 K, Liquid	518.4 ± 10 J/K/mol
569 K, Liquid	518.4 ± 10 J/K/mol
570 K, Liquid	519.1 ± 10 J/K/mol
571 K, Liquid	519.4 ± 10 J/K/mol
572 K, Liquid	518.4 ± 10 J/K/mol
573 K, Liquid	519.1 ± 10 J/K/mol
574 K, Liquid	519.1 ± 10 J/K/mol
575 K, Liquid	521.4 ± 10 J/K/mol and 519.4 ± 10 J/K/mol
576 K, Liquid	519.8 ± 10 J/K/mol
577 K, Liquid	518.7 ± 10 J/K/mol
578 K, Liquid	511.7 ± 10 J/K/mol
579 K, Liquid	512.8 ± 10 J/K/mol
580 K, Liquid	514.2 ± 10 J/K/mol and 525.2 ± 10 J/K/mol
581 K, Liquid	515.9 ± 10 J/K/mol
582 K, Liquid	517.3 ± 10 J/K/mol
583 K, Liquid	518.7 ± 10 J/K/mol
584 K, Liquid	520.5 ± 10 J/K/mol
585 K, Liquid	521.9 ± 10 J/K/mol and 529.9 ± 11 J/K/mol
586 K, Liquid	524 ± 10 J/K/mol
587 K, Liquid	525.4 ± 10 J/K/mol
588 K, Liquid	526.8 ± 10 J/K/mol
589 K, Liquid	528.2 ± 11 J/K/mol
590 K, Liquid	529.9 ± 11 J/K/mol and 531.4 ± 11 J/K/mol
591 K, Liquid	525.4 ± 10 J/K/mol
592 K, Liquid	525.4 ± 10 J/K/mol
593 K, Liquid	526.1 ± 10 J/K/mol
594 K, Liquid	526.4 ± 10 J/K/mol
595 K, Liquid	525.4 ± 10 J/K/mol and 534.2 ± 11 J/K/mol
596 K, Liquid	526.1 ± 10 J/K/mol
597 K, Liquid	526.1 ± 10 J/K/mol
598 K, Liquid	527.1 ± 10 J/K/mol
599 K, Liquid	525.7 ± 10 J/K/mol
600 K, Liquid	525 ± 10 J/K/mol and 537.1 ± 11 J/K/mol
601 K, Liquid	526.4 ± 10 J/K/mol
602 K, Liquid	521.9 ± 10 J/K/mol
603 K, Liquid	521.9 ± 10 J/K/mol
604 K, Liquid	519.8 ± 10 J/K/mol
605 K, Liquid	522.6 ± 10 J/K/mol and 539.5 ± 11 J/K/mol
606 K, Liquid	524.7 ± 10 J/K/mol
607 K, Liquid	524.7 ± 10 J/K/mol
608 K, Liquid	520.8 ± 10 J/K/mol
609 K, Liquid	521.9 ± 10 J/K/mol
610 K, Liquid	526.8 ± 10 J/K/mol and 541 ± 11 J/K/mol
611 K, Liquid	532 ± 11 J/K/mol
612 K, Liquid	525 ± 10 J/K/mol
613 K, Liquid	529.2 ± 11 J/K/mol
614 K, Liquid	536.6 ± 11 J/K/mol
615 K, Liquid	532 ± 11 J/K/mol and 545.6 ± 11 J/K/mol
616 K, Liquid	533.8 ± 11 J/K/mol
617 K, Liquid	541.5 ± 11 J/K/mol
618 K, Liquid	537.6 ± 11 J/K/mol
619 K, Liquid	543.2 ± 11 J/K/mol
620 K, Liquid	538.7 ± 11 J/K/mol and 547.7 ± 11 J/K/mol
621 K, Liquid	542.2 ± 11 J/K/mol
622 K, Liquid	543.6 ± 11 J/K/mol
623 K, Liquid	544.3 ± 11 J/K/mol
623.15 K, Liquid	543.9 ± 11 J/K/mol and 552.9 ± 11 J/K/mol
